Test in all cases: Intracellular EGFR phosphorylation, mutant EGFR forced expression system using HEK293 cells
What all share (type): cell-based
Common to all, as to settings: 6 hours incubation, p-EGFR (Tyr1068)/EGFR

The target in assay [1] is T1, human EGFR Ex19del (Del E746-A750) (Homo sapiens, UniProt P00533, DEL746-750).
T1 construct: expressed in transfected cells; host or cells: Jump-In Grip HEK293 cells (Thermo Fisher Scientific)

The target in assay [2] is T2, human EGFR Ex19del+T790M (Homo sapiens, UniProt P00533, DEL746-750/T790M).
T2 construct: expressed in transfected cells; host or cells: Jump-In Grip HEK293 cells (Thermo Fisher Scientific)

The target in assay [3] is T3, human EGFR Ex19del+T790M+L718Q (Homo sapiens, UniProt P00533, DEL746-750/L718Q/T790M).
T3 construct: expressed in transfected cells; host or cells: Jump-In Grip HEK293 cells (Thermo Fisher Scientific)

The target in assay [4] is T4, human EGFR Ex19del+T790M+L792H (Homo sapiens, UniProt P00533, DEL746-750/L792H/T790M).
T4 construct: expressed in transfected cells; host or cells: Jump-In Grip HEK293 cells (Thermo Fisher Scientific)

Assay [5] has as its target T5, human EGFR Ex19del+T790M+L792F (Homo sapiens, UniProt P00533, DEL746-750/L792F/T790M).
T5 construct: expressed in transfected cells; host or cells: Jump-In Grip HEK293 cells (Thermo Fisher Scientific)

For assay [6], the target named is T6, human EGFR Ex19del+T790M+L792Y (Homo sapiens, UniProt P00533, DEL746-750/L792Y/T790M).
T6 construct: expressed in transfected cells; host or cells: Jump-In Grip HEK293 cells (Thermo Fisher Scientific)

The target in assay [7] is T7, human EGFR L858R (Homo sapiens, UniProt P00533, L858R).
T7 construct: expressed in transfected cells; host or cells: Jump-In Grip HEK293 cells (Thermo Fisher Scientific)

Assay [8] has as its target T8, human EGFR L858R+T790M (Homo sapiens, UniProt P00533, L858R/T790M).
T8 construct: expressed in transfected cells; host or cells: Jump-In Grip HEK293 cells (Thermo Fisher Scientific)

The target of assay [9] is T9, human EGFR L858R+T790M+L718Q (Homo sapiens, UniProt P00533, L718Q/L858R/T790M).
T9 construct: expressed in transfected cells; host or cells: Jump-In Grip HEK293 cells (Thermo Fisher Scientific)

In assay [10] the target is T10, human EGFR L858R+T790M+L792H (Homo sapiens, UniProt P00533, L792H/L858R/T790M).
T10 construct: expressed in transfected cells; host or cells: Jump-In Grip HEK293 cells (Thermo Fisher Scientific)

For assay [11], the target named is T11, human EGFR L858R+T790M+L792F (Homo sapiens, UniProt P00533, L792F/L858R/T790M).
T11 construct: expressed in transfected cells; host or cells: Jump-In Grip HEK293 cells (Thermo Fisher Scientific)

Assay [12] has as its target T12, human EGFR L858R+T790M+L792Y (Homo sapiens, UniProt P00533, L792Y/L858R/T790M).
T12 construct: expressed in transfected cells; host or cells: Jump-In Grip HEK293 cells (Thermo Fisher Scientific)

T10 sequence (P00533 25-1210 T790M/L792H/L858R): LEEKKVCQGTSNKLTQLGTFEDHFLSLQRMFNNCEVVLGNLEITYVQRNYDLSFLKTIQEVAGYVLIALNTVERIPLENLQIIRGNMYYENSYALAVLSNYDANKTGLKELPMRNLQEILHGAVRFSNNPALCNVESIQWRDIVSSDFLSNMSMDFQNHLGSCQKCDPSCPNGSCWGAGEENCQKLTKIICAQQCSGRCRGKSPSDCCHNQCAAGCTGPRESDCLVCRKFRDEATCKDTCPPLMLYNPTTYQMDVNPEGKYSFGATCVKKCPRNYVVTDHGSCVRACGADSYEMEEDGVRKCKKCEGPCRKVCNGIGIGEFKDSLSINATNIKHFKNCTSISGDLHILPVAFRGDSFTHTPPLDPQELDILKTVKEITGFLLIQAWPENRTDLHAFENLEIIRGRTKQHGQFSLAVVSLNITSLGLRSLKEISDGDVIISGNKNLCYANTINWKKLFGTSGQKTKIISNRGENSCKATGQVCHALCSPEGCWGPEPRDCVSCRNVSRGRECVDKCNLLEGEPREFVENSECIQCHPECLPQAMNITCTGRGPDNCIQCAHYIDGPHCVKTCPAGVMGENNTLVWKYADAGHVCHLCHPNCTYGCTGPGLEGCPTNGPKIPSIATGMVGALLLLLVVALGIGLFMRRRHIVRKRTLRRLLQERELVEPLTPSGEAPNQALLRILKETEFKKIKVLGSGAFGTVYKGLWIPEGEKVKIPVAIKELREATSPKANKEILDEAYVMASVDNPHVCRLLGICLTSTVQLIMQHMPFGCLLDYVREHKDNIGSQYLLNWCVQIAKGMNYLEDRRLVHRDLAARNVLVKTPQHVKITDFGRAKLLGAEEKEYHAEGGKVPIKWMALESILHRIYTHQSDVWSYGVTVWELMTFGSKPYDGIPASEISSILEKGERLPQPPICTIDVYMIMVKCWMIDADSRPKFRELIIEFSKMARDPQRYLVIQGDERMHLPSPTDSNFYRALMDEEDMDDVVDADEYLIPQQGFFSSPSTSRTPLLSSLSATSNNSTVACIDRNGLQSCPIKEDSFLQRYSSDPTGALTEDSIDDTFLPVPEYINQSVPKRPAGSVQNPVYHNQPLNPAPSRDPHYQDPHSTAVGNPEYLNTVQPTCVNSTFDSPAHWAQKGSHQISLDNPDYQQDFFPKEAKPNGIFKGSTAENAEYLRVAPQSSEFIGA
T6 sequence (P00533 with tags, fused parts or gaps DEL746-750/T790M/L792Y): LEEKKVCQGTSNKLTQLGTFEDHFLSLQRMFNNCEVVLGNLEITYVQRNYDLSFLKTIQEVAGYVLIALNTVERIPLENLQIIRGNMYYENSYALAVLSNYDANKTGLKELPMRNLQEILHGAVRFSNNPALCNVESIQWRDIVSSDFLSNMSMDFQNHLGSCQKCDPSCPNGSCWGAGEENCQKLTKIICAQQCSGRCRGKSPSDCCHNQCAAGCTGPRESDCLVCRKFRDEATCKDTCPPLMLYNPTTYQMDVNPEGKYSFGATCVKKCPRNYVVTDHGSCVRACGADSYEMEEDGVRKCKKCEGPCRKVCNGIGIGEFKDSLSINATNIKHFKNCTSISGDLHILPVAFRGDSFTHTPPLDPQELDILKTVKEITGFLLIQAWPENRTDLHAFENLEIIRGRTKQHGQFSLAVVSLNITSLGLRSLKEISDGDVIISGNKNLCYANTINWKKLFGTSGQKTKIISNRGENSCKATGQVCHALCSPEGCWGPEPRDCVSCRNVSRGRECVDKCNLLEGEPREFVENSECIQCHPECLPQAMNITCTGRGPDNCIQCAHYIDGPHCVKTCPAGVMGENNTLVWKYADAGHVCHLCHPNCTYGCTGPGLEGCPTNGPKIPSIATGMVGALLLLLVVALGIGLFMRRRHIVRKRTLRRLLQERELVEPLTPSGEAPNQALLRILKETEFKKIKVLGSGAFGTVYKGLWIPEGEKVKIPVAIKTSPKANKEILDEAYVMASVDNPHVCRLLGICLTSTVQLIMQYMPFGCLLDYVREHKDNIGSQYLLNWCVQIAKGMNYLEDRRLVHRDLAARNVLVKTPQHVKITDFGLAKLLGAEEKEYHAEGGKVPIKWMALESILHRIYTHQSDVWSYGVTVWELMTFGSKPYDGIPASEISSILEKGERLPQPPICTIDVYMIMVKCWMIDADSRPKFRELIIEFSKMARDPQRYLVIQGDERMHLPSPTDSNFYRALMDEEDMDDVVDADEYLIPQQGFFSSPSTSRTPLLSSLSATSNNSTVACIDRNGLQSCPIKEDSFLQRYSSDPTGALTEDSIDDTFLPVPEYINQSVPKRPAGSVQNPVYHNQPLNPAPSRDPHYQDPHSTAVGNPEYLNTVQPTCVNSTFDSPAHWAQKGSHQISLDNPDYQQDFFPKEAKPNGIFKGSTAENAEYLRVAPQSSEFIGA
T9 sequence (P00533 25-1210 L718Q/T790M/L858R): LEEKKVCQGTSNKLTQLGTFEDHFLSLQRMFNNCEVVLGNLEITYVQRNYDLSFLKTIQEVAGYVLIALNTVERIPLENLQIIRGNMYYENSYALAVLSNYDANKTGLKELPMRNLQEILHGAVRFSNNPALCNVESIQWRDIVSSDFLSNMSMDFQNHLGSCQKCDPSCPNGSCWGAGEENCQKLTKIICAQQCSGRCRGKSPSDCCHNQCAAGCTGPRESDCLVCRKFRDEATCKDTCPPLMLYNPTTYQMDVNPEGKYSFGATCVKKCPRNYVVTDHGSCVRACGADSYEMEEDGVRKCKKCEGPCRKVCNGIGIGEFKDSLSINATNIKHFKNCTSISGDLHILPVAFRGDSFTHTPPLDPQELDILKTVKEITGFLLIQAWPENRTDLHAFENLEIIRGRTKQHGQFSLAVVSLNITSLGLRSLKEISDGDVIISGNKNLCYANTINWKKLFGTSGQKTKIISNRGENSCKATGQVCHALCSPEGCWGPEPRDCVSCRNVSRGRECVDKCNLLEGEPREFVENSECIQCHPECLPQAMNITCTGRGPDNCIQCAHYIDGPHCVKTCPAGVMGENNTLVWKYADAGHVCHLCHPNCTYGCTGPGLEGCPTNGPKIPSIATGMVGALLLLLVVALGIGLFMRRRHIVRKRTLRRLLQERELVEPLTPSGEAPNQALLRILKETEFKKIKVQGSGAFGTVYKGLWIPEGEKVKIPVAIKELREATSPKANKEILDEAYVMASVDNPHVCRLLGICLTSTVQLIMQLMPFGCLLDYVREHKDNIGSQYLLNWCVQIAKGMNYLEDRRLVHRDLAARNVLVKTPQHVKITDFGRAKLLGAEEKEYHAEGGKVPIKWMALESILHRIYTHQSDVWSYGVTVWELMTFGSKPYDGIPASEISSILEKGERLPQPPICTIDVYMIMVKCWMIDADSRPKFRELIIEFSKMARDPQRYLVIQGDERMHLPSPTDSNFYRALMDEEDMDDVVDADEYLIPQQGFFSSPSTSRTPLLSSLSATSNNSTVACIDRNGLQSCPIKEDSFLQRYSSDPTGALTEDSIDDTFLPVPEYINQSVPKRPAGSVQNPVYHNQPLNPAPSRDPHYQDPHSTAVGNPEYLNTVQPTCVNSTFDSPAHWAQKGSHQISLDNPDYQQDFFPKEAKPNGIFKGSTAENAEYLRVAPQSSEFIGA
T1 sequence (P00533 with tags, fused parts or gaps DEL746-750): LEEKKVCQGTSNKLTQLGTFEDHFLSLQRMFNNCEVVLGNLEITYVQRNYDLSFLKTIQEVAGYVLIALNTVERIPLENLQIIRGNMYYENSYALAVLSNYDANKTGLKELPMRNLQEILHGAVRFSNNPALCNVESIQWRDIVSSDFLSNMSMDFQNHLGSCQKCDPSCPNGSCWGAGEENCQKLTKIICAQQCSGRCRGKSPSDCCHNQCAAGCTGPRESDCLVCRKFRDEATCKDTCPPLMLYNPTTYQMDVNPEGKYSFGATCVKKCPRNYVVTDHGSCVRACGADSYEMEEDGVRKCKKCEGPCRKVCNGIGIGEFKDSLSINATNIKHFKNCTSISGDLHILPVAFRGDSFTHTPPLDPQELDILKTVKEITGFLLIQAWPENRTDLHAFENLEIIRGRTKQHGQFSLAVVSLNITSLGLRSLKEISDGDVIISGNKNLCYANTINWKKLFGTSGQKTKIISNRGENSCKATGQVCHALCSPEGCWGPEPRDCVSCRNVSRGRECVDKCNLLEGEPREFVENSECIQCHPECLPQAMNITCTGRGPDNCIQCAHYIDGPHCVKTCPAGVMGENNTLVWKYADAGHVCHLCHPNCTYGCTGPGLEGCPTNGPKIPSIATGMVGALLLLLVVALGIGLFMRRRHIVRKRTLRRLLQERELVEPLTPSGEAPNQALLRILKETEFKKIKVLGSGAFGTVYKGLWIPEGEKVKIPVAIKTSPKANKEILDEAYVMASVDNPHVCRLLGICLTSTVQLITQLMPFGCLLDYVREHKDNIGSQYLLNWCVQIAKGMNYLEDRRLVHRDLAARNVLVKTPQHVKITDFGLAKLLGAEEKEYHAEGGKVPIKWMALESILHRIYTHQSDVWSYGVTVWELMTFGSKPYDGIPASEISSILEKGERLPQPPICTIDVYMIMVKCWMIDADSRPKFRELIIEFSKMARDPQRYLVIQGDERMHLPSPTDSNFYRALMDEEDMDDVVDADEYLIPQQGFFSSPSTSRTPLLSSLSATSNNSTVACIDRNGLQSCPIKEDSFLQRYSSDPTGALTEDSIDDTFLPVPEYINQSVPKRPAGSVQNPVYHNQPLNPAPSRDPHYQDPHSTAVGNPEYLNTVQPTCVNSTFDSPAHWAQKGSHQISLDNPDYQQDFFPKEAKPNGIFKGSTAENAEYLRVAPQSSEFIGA

As usually defined, the IC50 is the midpoint of a concentration-inhibition curve. A low value points to higher potency. Turning to `C=CC(=O)N[C@H]1C=C(C)c2c(-c3cnc4ccccc4c3)c3c(N)ncnc3n2C1` [Compound A, (S)—N-(4-amino-6-methyl-5-(quinolin-3-yl)-8,9-dihydropyrimido[5,4-b]indolizin-8-yl) acrylamide], the IC50 in [1] stood at 11.2 ± 6.4 µM; in assay [2] it was 16.9 ± 5.9 µM; in [3], 82.5 ± 9 µM; in assay [4], 11.1 ± 5.6 µM; in assay [5], 6.25 ± 1.83 µM; in assay [6] it was 6.54 ± 1.49 µM. For the same molecule, the half-inhibitory concentration (IC50) in [7] amounted to 13.8 ± 3.8 µM; in assay [8], 16 ± 2.6 µM; in assay [9], 104 ± 40 µM; in assay [10], 15.3 ± 5 µM; in assay [11] it was 9.07 ± 4.74 µM; in assay [12], 11.3 ± 5.8 µM.

The values are drawn from US12661356B2, “L718 and/or L792 mutant treatment-resistant EGFR inhibitor” (TAIHO PHARMACEUTICAL CO., LTD., priority 2018, dated 2026).
